Experimental findings from patent publication US12139492B2 (Endotarget Inc., priority 2021, dated 2024) are described below.

For assay [1], the system named is Mino cells. As to the kind of experiment: Antiproliferative effect, MTS cell viability assay, Mino cells. The class given is cell-based. Conditions: Homo sapiens, MINO, Mino mantle cell lymphoma cells; read-out: IC50 (anti-proliferation) Mino cells. An outline of the steps: (§1)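 Mino and JeKo-1 mantle B-cell lymphoma lines were exposed to compound at 0, 0.001, 0.01, 0.1, 1 and 10 μM for 72 h. Viability was read by MTS reduction to formazan, measured as absorbance at 490 nm.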
In general terms: Formazan colour is commonly taken as a measure of viable cells.

Assay [2] deals with JeKo-1 cells. The experiment in a line: Antiproliferative effect, MTS cell viability assay, JeKo-1 cells. The class given is cell-based. The conditions noted are these: Homo sapiens; JeKo-1 mantle cell lymphoma cells; read-out: IC50 (anti-proliferation) JeKO-1 cells. An outline of the steps: as §1
Assay [3] concerns the target T1, BTK (Homo sapiens, UniProt Q06187). As to the kind of experiment: BTK degradation, DC50 and Dmax of Table 1 (cell line not given). In kind it is cell-based. Details: endogenous in cells. Conditions: for DC50: concentration giving 50% reduction of BTK expression level.
In assay [4] the target is T1, BTK. As to the kind of experiment: Degradation of BTK protein in Namalwa cells (Western blot; DC50, Dmax). Conditions: Namalwa B lymphocyte cells, Western blot; for degradation of BTK protein: various concentrations, 24 hours.

A word on the Dmax: it is the greatest extent of degradation seen. A higher Dmax goes with deep degradation. A word on the DC50: it is the concentration giving 50% degradation. Read a low DC50 as a more potent degrader.

Each structure is given as a SMILES string.

T1 sequence (Q06187 whole entry): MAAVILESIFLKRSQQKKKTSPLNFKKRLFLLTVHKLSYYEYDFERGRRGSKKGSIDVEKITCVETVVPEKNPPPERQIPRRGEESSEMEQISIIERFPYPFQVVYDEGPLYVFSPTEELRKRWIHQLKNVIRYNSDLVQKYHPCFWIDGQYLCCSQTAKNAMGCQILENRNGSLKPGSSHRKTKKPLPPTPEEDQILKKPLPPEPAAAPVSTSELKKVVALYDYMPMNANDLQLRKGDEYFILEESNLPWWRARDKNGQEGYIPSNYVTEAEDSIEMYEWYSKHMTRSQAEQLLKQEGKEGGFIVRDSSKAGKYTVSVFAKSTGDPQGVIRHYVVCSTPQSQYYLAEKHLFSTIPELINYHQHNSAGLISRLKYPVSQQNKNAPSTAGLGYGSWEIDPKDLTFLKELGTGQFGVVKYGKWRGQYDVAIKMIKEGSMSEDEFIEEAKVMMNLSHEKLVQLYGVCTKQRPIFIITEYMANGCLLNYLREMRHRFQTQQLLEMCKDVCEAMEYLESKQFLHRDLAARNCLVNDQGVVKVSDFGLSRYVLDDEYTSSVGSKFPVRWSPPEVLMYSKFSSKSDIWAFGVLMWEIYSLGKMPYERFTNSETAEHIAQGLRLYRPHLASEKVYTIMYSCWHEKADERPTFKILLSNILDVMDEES

Consider `Nc1ncnc2c1c(-c1ccc(Oc3ccccc3)cc1)nn2C1CCN(CC2CCN(C(=O)N3CCC(N4CCN(c5ccc6c(c5)C(=O)N(C5CCC(=O)NC5=O)C6=O)CC4)CC3)CC2)CC1` (stereo not drawn) [Compound 37, 5-(4-(1-(4-((4-(4-amino-3-(4-phenoxyphenyl)-1H-pyrazolo(3,4-d)pyrimidin-1-yl)piperidin-1-yl)methyl)piperidine-1-carbonyl)piperidin-4-yl)piperazin-1-yl)-2-(2,6-dioxopiperidin-3-yl)isoindoline-1,3-dione], for which, in assay [1], the IC50 is under 1000 nM. Besides, the IC50 in assay [2] was in the range of 1000 to 10000 nM. In assay [3], this compound showed a maximal degradation (Dmax) of over 90% and a DC50 of 10 to 50 nM. For the same compound, in assay [4], the “degradation of BTK protein at 10^−6 M” value is “degradation” and the “degradation of BTK protein” value was “dose-dependent degradation”.
On to `Nc1ncnc2c1c(-c1ccc(Oc3ccccc3)cc1)nn2C1CCN(CC2CCN(C(=O)N3CCC(C4CCN(c5ccc6c(c5)C(=O)N(C5CCC(=O)NC5=O)C6=O)CC4)CC3)CC2)CC1` (stereo not drawn) [Compound 39, 5-(1′-(4-((4-(4-amino-3-(4-phenoxyphenyl)-1H-pyrazolo(3,4-d)pyrimidin-1-yl)piperidin-1-yl)methyl)piperidine-1-carbonyl)-(4,4′-bipiperidin)-1-yl)-2-(2,6-dioxopiperidin-3-yl)isoindoline-1,3-dione], for which, in assay [1], the IC50 lay in the range of 1000 to 10000 nM. Besides, the IC50 in assay [2] was over 10000 nM. In assay [3], this compound showed a Dmax of over 90% and a half-maximal degradation concentration (DC50) of over 50 nM. Besides, in assay [4], the “degradation of BTK protein at 10^−6 M” value is listed as “degradation” and the “degradation of BTK protein” value is “dose-dependent degradation”.
In the case of `Nc1ncnc2c1c(-c1ccc(Oc3ccccc3)cc1)nn2C1CCN(CC2CCN(C(=O)N3CCC(CN4CCN(c5ccc6c(c5)C(=O)N(C5CCC(=O)NC5=O)C6=O)CC4)CC3)CC2)CC1` (stereo not drawn) [Compound 41, 5-(4-((1-(4-((4-(4-amino-3-(4-phenoxyphenyl)-1H-pyrazolo(3,4-d)pyrimidin-1-yl)piperidin-1-yl)methyl)piperidine-1-carbonyl)piperidin-4-yl)methyl)piperazin-1-yl)-2-(2,6-dioxopiperidin-3-yl)isoindoline-1,3-dione], the IC50 in assay [1] was under 1000 nM. Besides, the IC50 in assay [2] is 1000 to 10000 nM. In addition, in assay [3], the maximal degradation (Dmax) was over 90% and the DC50 was in the range of 10 to 50 nM. For the same compound, in assay [4], the “degradation of BTK protein at 10^−6 M” value is “degradation” and the “degradation of BTK protein” value was “dose-dependent degradation”.
For the compound `Nc1ncnc2c1c(-c1ccc(Oc3ccccc3)cc1)nn2[C@@H]1CCCN(C(=O)N2CCN(c3ccc4c(c3)C(=O)N(C3CCC(=O)NC3=O)C4=O)CC2)C1` (stereo partly drawn) [Compound 45, 5-(4-((R)-3-(4-amino-3-(4-phenoxyphenyl)-1H-pyrazolo[3,4-d]pyrimidin-1-yl)piperidine-1-carbonyl)piperazin-1-yl)-2-(2,6-dioxopiperidin-3-yl)isoindoline-1,3-dione], the IC50 in assay [1] was over 10000 nM. For the same compound, in assay [2], the IC50 was over 10000 nM. In addition, in assay [3], the Dmax is over 50% and the DC50 was over 50 nM. Moreover, in assay [4], the “degradation of BTK protein at 10^−6 M” value is reported as “degradation”.
Take `Nc1ncnc2c1c(-c1ccc(Oc3ccccc3)cc1)nn2[C@@H]1CCCN(C(=O)N2CCC(C3CCN(c4ccc5c(c4)C(=O)N(C4CCC(=O)NC4=O)C5=O)CC3)CC2)C1` (stereo partly drawn) [Compound 49, 5-(1′-((R)-3-(4-amino-3-(4-phenoxyphenyl)-1H-pyrazolo(3,4-d)pyrimidin-1-yl)piperidine-1-carbonyl)-(4,4′-bipiperidin)-1-yl)-2-(2,6-dioxopiperidin-3-yl)isoindoline-1,3-dione]: in assay [1], the IC50 was 1000 to 10000 nM. Moreover, the IC50 in assay [2] was in the range of 1000 to 10000 nM. Besides, in assay [3], the maximal degradation (Dmax) is over 90% and the DC50 lay within 10 to 50 nM. Besides, the “degradation of BTK protein at 10^−6 M” value in assay [4] is “degradation”.
As for `Nc1ncnc2c1c(-c1ccc(Oc3ccccc3)cc1)nn2[C@@H]1CCCN(C(=O)N2CCC(N3CCN(c4ccc5c(c4)C(=O)N(C4CCC(=O)NC4=O)C5=O)CC3)CC2)C1` (stereo partly drawn) [Compound 51, 5-(4-(1-((R)-3-(4-amino-3-(4-phenoxyphenyl)-1H-pyrazolo(3,4-d)pyrimidin-1-yl)piperidine-1-carbonyl)piperidin-4-yl)piperazin-1-yl)-2-(2,6-dioxopiperidin-3-yl)isoindoline-1,3-dione], the IC50 in assay [1] is under 1000 nM. Further, the IC50 in assay [2] is under 1000 nM. For the same compound, in assay [3], the greatest degradation seen (Dmax) is over 90% and the half-maximal degradation concentration (DC50) was under 10 nM. In assay [4], the “degradation of BTK protein at 10^−6 M” value was “degradation” and the “degradation of BTK protein” value is “dose-dependent degradation”.
As for `Nc1ncnc2c1c(-c1ccc(Oc3ccccc3)cc1)nn2[C@@H]1CCCN(C(=O)N2CCC(CN3CCN(c4ccc5c(c4)C(=O)N(C4CCC(=O)NC4=O)C5=O)CC3)CC2)C1` (stereo partly drawn) [Compound 55, 5-(4-((1-((R)-3-(4-amino-3-(4-phenoxyphenyl)-1H-pyrazolo(3,4-d)pyrimidin-1-yl)piperidine-1-carbonyl)piperidin-4-yl)methyl)piperazin-1-yl)-2-(2,6-dioxopiperidin-3-yl)isoindoline-1,3-dione], in assay [1], the IC50 is under 1000 nM. Moreover, the IC50 in assay [2] is under 1000 nM. Moreover, in assay [3], the Dmax is over 90% and the DC50 lay within 10 to 50 nM. Moreover, in assay [4], the “degradation of BTK protein at 10^−6 M” value was “degradation” and the “degradation of BTK protein” value is recorded as “dose-dependent degradation”.
Regarding `Nc1ncnc2c1c(-c1ccc(Oc3ccccc3)cc1)nn2[C@@H]1CCCN(C(=O)N2CCC(CCN3CCN(c4ccc5c(c4)C(=O)N(C4CCC(=O)NC4=O)C5=O)CC3)CC2)C1` (stereo partly drawn) [Compound 63, 5-(4-(2-(1-((R)-3-(4-amino-3-(4-phenoxyphenyl)-1H-pyrazolo(3,4-d)pyrimidin-1-yl)piperidine-1-carbonyl)piperidin-4-yl)ethyl)piperazin-1-yl)-2-(2,6-dioxopiperidin-3-yl)isoindoline-1,3-dione], in assay [1], the IC50 fell in the range of 1000 to 10000 nM. Besides, the IC50 in assay [2] lay in the range of 1000 to 10000 nM. Besides, in assay [3], the greatest degradation seen (Dmax) is over 90% and the half-maximal degradation concentration (DC50) was under 10 nM. Moreover, in assay [4], the “degradation of BTK protein at 10^−6 M” value is given as “degradation” and the “degradation of BTK protein” value was “dose-dependent degradation”.
As to `Nc1ncnc2c1c(-c1ccc(Oc3ccccc3)cc1)nn2C1CCN(C(=O)N2CCN(c3ccc4c(c3)C(=O)N(C3CCC(=O)NC3=O)C4=O)CC2)CC1` (stereo not drawn) [Compound 75, 5-(4-(4-(4-amino-3-(4-phenoxyphenyl)-1H-pyrazolo(3,4-d)pyrimidin-1-yl)piperidine-1-carbonyl)piperazin-1-yl)-2-(2,6-dioxopiperidin-3-yl)isoindoline-1,3-dione], in assay [1], the IC50 was over 10000 nM. For the same compound, the IC50 in assay [2] is over 10000 nM. For the same compound, in assay [3], the Dmax is over 50% and the DC50 was over 50 nM. Besides, the “degradation of BTK protein at 10^−6 M” value in assay [4] is on record as “degradation”.
Consider `Nc1ncnc2c1c(-c1ccc(Oc3ccccc3)cc1)nn2C1CCN(C(=O)N2CCC(C3CCN(c4ccc5c(c4)C(=O)N(C4CCC(=O)NC4=O)C5=O)CC3)CC2)CC1` (stereo not drawn) [Compound 79, 5-(1′-(4-(4-amino-3-(4-phenoxyphenyl)-1H-pyrazolo(3,4-d)pyrimidin-1-yl)piperidine-1-carbonyl)-(4,4′-bipiperidin)-1-yl)-2-(2,6-dioxopiperidin-3-yl)isoindoline-1,3-dione], for which the IC50 in assay [1] and in assay [2] was over 10000 nM each time. This compound also yielded a maximal degradation (Dmax) in assay [3] of over 75%. This compound also came in with a DC50 in assay [3] of over 50 nM. Besides, the “degradation of BTK protein at 10^−6 M” value in assay [4] is recorded as “degradation”.
`Nc1ncnc2c1c(-c1ccc(Oc3ccccc3)cc1)nn2C1CCN(C(=O)N2CCC(C3CCN(c4ccc5c(c4)CN(C4CCC(=O)NC4=O)C5=O)CC3)CC2)CC1` (stereo not drawn) [Compound 80, 3-(5-(1′-(4-(4-amino-3-(4-phenoxyphenyl)-1H-pyrazolo[3,4-d]pyrimidin-1-yl)piperidine-1-carbonyl)-[4,4′-bipiperidin]-1-yl)-1-oxoisoindolin-2-yl)piperidine-2,6-dione]: the IC50 in assay [1] is over 10000 nM. For the same compound, the IC50 in assay [2] is over 10000 nM. Moreover, in assay [3], the Dmax is over 75% and the DC50 was over 50 nM. Moreover, the “degradation of BTK protein at 10^−6 M” value in assay [4] is given as “degradation”.
Regarding `Nc1ncnc2c1c(-c1ccc(Oc3ccccc3)cc1)nn2C1CCN(C(=O)N2CCC(N3CCN(c4ccc5c(c4)C(=O)N(C4CCC(=O)NC4=O)C5=O)CC3)CC2)CC1` (stereo not drawn) [Compound 81, 5-(4-(1-(4-(4-amino-3-(4-phenoxyphenyl)-1H-pyrazolo(3,4-d)pyrimidin-1-yl)piperidine-1-carbonyl)piperidin-4-yl)piperazin-1-yl)-2-(2,6-dioxopiperidin-3-yl)isoindoline-1,3-dione], the IC50 in assay [1] and in assay [2] was over 10000 nM each time. For the same compound, in assay [3], the greatest degradation seen (Dmax) is over 75%. This compound returned a DC50 in assay [3] of over 50 nM. For the same compound, in assay [4], the “degradation of BTK protein” value was “dose-dependent degradation”.
Take `Nc1ncnc2c1c(-c1ccc(Oc3ccccc3)cc1)nn2C1CCN(C(=O)N2CCC(CN3CCN(c4ccc5c(c4)C(=O)N(C4CCC(=O)NC4=O)C5=O)CC3)CC2)CC1` (stereo not drawn) [Compound 85, 5-(4-((1-(4-(4-amino-3-(4-phenoxyphenyl)-1H-pyrazolo(3,4-d)pyrimidin-1-yl)piperidine-1-carbonyl)piperidin-4-yl)methyl)piperazin-1-yl)-2-(2,6-dioxopiperidin-3-yl)isoindoline-1,3-dione]: the IC50 in assay [1] was under 1000 nM. In assay [2], the IC50 is under 1000 nM. Moreover, in assay [3], the Dmax was over 90% and the 50% degradation concentration (DC50) is under 10 nM. Moreover, in assay [4], the “degradation of BTK protein at 10^−6 M” value is recorded as “degradation” and the “degradation of BTK protein” value is given as “dose-dependent degradation”.
